The text below walks through data of patent US5439944A, “Red blood cell substitute emulsions containing alkyl- or alkylglyucerophosphoryl choline surfactants and methods of use” (priority 1993, dated 1995).

In data set [1] the test system is rat whole blood. The data set is described as follows: Hemolysis screening of surfactants. The class given is cell-based. To be noted: 5% surfactant in 0.9% saline admixed 1:1 with rat whole blood; visually distinct red hue of supernate. The protocol: Surfactant Examples 1a-1k according to general Structure I above, and 2a of Structure II above, were prepared following the above procedures.
(§1) Surfactants were screened initially by preparing 5% solutions/dispersions of the surfactant in 0.9% saline and admixing 1:1 with rat whole blood. Centrifugation (6 minutes) at 2400 rpm afforded packed cells and a supernate. […] The discoloration of the supernate was not quantified colorimetrically.

In data set [2] the test system is Sprague Dawley rats. The data set is described as follows: Preliminary acute toxicity screen. The class given is in vivo. The following applies: 5% sonicated dispersion in 0.9% saline, two Sprague Dawley rats, 14 days.
Data set [3] in a line: Solubility/dispersion of surfactant in 0.9% saline. Format: physicochemical. To be noted: 5% solution/dispersion in 0.9% saline. The protocol: as §1
Data set [4] can be described thus: Organ distribution 14 days after infusion (Table V). The following applies: for Kidney / Liver / Lung / Spleen / Survival / Hct: 14 days after infusion of 40 cc/Kg; for Hct: hematocrit. The class given is in vivo, rats. The protocol:
The impact of the emulsions of Table IV on organ distribution of PFC was then determined by sacrificing the test animals 14 days after infusion.

Data set [5] is described as follows: Perfluorochemical circulatory blood residence time (fluorocrit). Format: in vivo, rats. The following applies: perfluorochemical remaining at 48 hours.
Procedure: The emulsions of Tables II and III were studied in a randomized, ten animal per emulsion experiment in which each animal was infused with 20 cc/Kg of emulsion and sacrificed at 48 hours to determine the circulatory perfluorochemical or perfluorocarbon content called "fluorocrit" and abbreviated "Fct". The Fct represents that percentage of the blood that is perfluorocarbon in v/v %.
After 48 hrs., the animals were anesthetized, the chest cavity was opened, and a blood sample (1-2ml) was withdrawn from the still beating heart. Three to 4 drops of the sample were added to each of three previously tared 4 ml vials containing 10%KOH/EtOH (1.0 ml). The vials were weighed to determine the amount of blood added, then reweighed after an internal standard mixture of 1% octane in CFCl3 (1.5-2.0ml) was added. H2 O was added to the vial until full, then the vial was placed on a rotary shaker at 240 rpm for 20 minutes. The lower layer was withdrawn, and passed through a glass wool plugged pasteur pipette containing silica gel (0.3-0.4g). […] The program parameters specified a hold period at 40° C. for 4 minutes, followed by a 10° C./minute temperature rise until 140° was attained.
Data set [6] is described as follows: Emulsion mean particle size and stability after 4 days in serum albumin/Lactated Ringer's at 37° C. The class given is physicochemical. The source says:
The surfactants of Table I were used to make 40 volume % (v/v) perfluorochemical emulsions. In the above described European Pat. Appln. […] Therefore, those perfluorochemical emulsions were used as a control for comparison with the perfluorochemical emulsions of this invention.
For comparison with the data of Table II, the study was repeated with a constant loading of 2 w/v % surfactant, and 2 w/v % safflower oil adjuvant for the control and surfactants of this invention.

A short description of data set [7]: Blood hematology. Format: in vivo, rats. To be noted: Table VIII, accredited outside laboratories. The text has this:
The effects on the liver and lung were not as pronounced in Table VI as in Table V. However, with respect to Table VII, it is believed that the smaller values obtained for the liver and spleen are also real.

Data set [8] can be described thus: Organ distribution, additional separate study (Table VII). The class given is in vivo, rats.
Data set [9] is described as follows: Organ distribution, additional separate study (Table VI). The class given is in vivo, rats.
For data set [10] the following is noted: K. Yokoyama et al; cited from earlier work.

With `CCCCCCCCOCC(COP(=O)([O-])OCC[N+](C)(C)C)OCCCCCCCC` (stereo not shown) [Cpd 1a, 1,2-dioctylglycero-3-phosphoryl choline], the Hemolytic result in data set [1] is “hemolytic and Yes”.
Regarding `CCCCCCCCCCCCCCOCC(COP(=O)([O-])OCC[N+](C)(C)C)OCCCCCCCCCCCCCC` (stereo not shown) [Cpd 1b, 1,2-ditetradecylglycero-3-phosphoryl choline], the Hemolytic result in data set [1] was “hemolytic and Yes”.
In the case of `CCCCCCCCCCCCCCCCOCC(COP(=O)([O-])OCC[N+](C)(C)C)OCCCCCCCCCCCCCCCC` (stereo not shown) [Cpd 1c, 1,2-dihexadecylglycero-3-phosphoryl choline], in data set [1], the Hemolytic entry is listed as “No”. Moreover, the “Survival at 40 cc/Kg of 5% solution” value in data set [2] was 2/2.
Turning to `CCCCCCCCCCCCCCCCCCOCC(COP(=O)([O-])OCC[N+](C)(C)C)OCCCCCCCCCCCCCCCCCC` (stereo not shown) [Cpd 1d, 1,2-di-octadecylglycero-3-phosphoryl choline], in [1], the Hemolytic entry is on record as “No”. The “Solubility (entry in survival column)” value in data set [3] is on record as “insoluble cpd”.
Take `CCCCCCCCCCCCCCCCOCC(COP(=O)([O-])OCC[N+](C)(C)C)OCCCCCCCCCCCCCC` (stereo not shown) [Cpd 1e, 1-hexadecyl-2-tetradecylglycero-3-phosphoryl choline]: in data set [1], the Hemolytic entry is on record as “No”. Besides, the “Survival at 40 cc/Kg of 5% solution” value in data set [2] is listed as 0/2. In addition, in data set [4], the Kidney was determined as 1.06 g/100 g, the Liver is reported as 7.97 g/100 g, the Lung was 0.57 g/100 g and the Spleen turned out to be 1.55 g/100 g. Also, in data set [4], the Survival is given as 9/10 and the Hct came to 35.8 v/v %.
For the compound `CCCCCCCCCCCCCCCCCCOCC(COP(=O)([O-])OCC[N+](C)(C)C)OCCCCCCCCCCCCCC` (stereo not shown) [Cpd 1f, 1-octadecyl-2-tetradecylglycero-3-phosphoryl choline], in [1], the Hemolytic result is reported as “No”. Also, in data set [2], the “Survival at 40 cc/Kg of 5% solution” value was 2/2. For the same compound, the “circulatory blood residence / stability in the circulatory blood system (in words)” value in data set [5] is “increased stabilities in the circulatory blood system”.
`CCCCCCCCCCCCCCCCCCOC(COCCCCCCCCCCCCCC)COP(=O)([O-])OCC[N+](C)(C)C` (stereo not shown) [Cpd 1g, 1-tetradecyl-2-octadecylglycero-3-phosphoryl choline]: the Hemolytic entry in data set [1] is recorded as “No”. In addition, the “Survival at 40 cc/Kg of 5% solution” value in [2] is listed as 0/2. For the same compound, in data set [4], the Kidney is on record as 0.94 g/100 g, the Liver is 7.52 g/100 g, the Lung amounted to 0.55 g/100 g and the Spleen is 1.49 g/100 g. Further, in data set [4], the Survival is 6/10 and the Hct stood at 39.0 v/v %.
In the case of `CCCCCCCCCCCCCCCCCCOC(COCCCCCCCCCCCCCCCC)COP(=O)([O-])OCC[N+](C)(C)C` (stereo not shown) [Cpd 1h, 1-hexadecyl-2-octadecylglycero-3-phosphoryl choline], the Hemolytic result in data set [1] is on record as “No”. For the same compound, the “Survival at 40 cc/Kg of 5% solution” value in [2] is listed as 0/2.
In the case of `CCCCCCCC/C=C\CCCCCCCCOCC(COP(=O)([O-])OCC[N+](C)(C)C)OCCCCCCCC/C=C\CCCCCCCC` (stereo not shown) [Cpd 1i, 1,2-Dioleylglycerophosphoryl choline], the Hemolytic entry in data set [1] is listed as “No”. Also, the “Mean Particle Size” value in data set [6] (Table II, 1.8 w/v % Cpd., 2.0 w/v % oil, 40 v/v % PFC emulsion, sterilized 15 min 121° C.) is on record as 304 nM. Besides, in data set [6] (Table II, 1.8 w/v % Cpd., 2.0 w/v % oil, particle size after 4 days at 37° C. in serum albumin/Lactated Ringer's), the “4 days Serum” value came to 258 nM. The “Mean Particle Size” value in data set [6] (Table III, 2 w/v % surfactant, 2 w/v % safflower oil) was determined as 323 nM. In [6] (Table III, 2 w/v % surfactant, 2 w/v % safflower oil, 4 days at 37° C. in serum albumin/Lactated Ringer's), the “4 days Serum” value stood at 301 nM. The “Survival at 40 cc/Kg of 5% solution” value in [2] is 2/2. In [4], this compound returned a Kidney of 0.96 g/100 g, a Liver of 7.47 g/100 g, a Lung of 0.64 g/100 g and a Spleen of 2.56 g/100 g. In data set [4], the Survival was 8/10 and the Hct was found to be 34.7 v/v %.
As for `CCCCCCCCCCCCCCCCCCOCC(COP(=O)([O-])OCC[N+](C)(C)C)OCCCCCCCCCCCCCCCC` (stereo not shown) [Cpd 1j, 1-octadecyl-2-hexadecylglycero-3-phosphoryl choline], in data set [7], the Platelets was 1024222, the RBC is recorded as 5.42 and the Reticulocytes is 313281. Moreover, the Hemoglobin in data set [7] (in g/dL (unit assumed)) is reported as 11.04. In [8], the Kidney is on record as 0.901 g/100 g, the Liver is 7.39 g/100 g, the Lung amounted to 0.828 g/100 g and the Spleen is reported as 1.46 g/100 g. Besides, the Survival in [8] is 10/10. In data set [8] (hematocrit), this compound returned a Hct of 37.7 v/v %. In [9], this compound returned a Kidney of 0.97 g/100 g, a Liver of 7.44 g/100 g, a Lung of 0.98 g/100 g and a Spleen of 1.70 g/100 g. For the same compound, in [9], the Survival is listed as 10/10. In addition, in [9] (hematocrit), the Hct is listed as 36.1 v/v %. Moreover, the “circulatory blood residence / stability in the circulatory blood system (in words)” value in [5] was “increased stabilities in the circulatory blood system”. In data set [4], this compound returned a Kidney of 0.89 g/100 g, a Liver of 6.64 g/100 g, a Lung of 0.57 g/100 g and a Spleen of 1.66 g/100 g. In addition, in data set [4], the Survival is on record as 9/10 and the Hct is 44.4 v/v %. In addition, in [4] (vs control), the “drop in hematocrit after infusion (in words)” value is recorded as “so striking”.
In [4], `CCCCCCCCCCCCCCCCOC(COCCCCCCCCCCCCCC)COP(=O)([O-])OCC[N+](C)(C)C` (stereo not shown) [Cpd 1k, 1-tetradecyl-2-hexadecylglycero-3-phosphoryl choline] had a Kidney of 1.22 g/100 g, a Liver of 7.76 g/100 g, a Lung of 0.64 g/100 g and a Spleen of 2.09 g/100 g. In data set [4], the Survival was 9/10 and the Hct is reported as 36.5 v/v %.
Take `FC(F)(F)C(F)(F)C(F)(F)N(C(F)(F)C(F)(F)C(F)(F)F)C(F)(F)C(F)(F)C(F)(F)F` [perfluorotripropylamine]: the “half life in the liver and other body tissues (in words)” value in data set [10] is “longer than desirable”.
